Measured values as given in US8653048B2 (Sanlugen Pharmatech Ltd., priority 2009, dated 2014).

Columns and labels:
[1] = tested on: HT29: a human colon cancer cell line; experiment: MTT analytical method, HT29 cells; assay type: cell-based; conditions: HT-29, 72 h
From the text: (§1) MTT analytical method was used to test the prodrugs for various tumor cells.
(§2) • 1) Cell lines: NCI-H460, A549, LOVO, HT-29, MDA-MB-231, SGC7901, HepG2 or BEL-7402 cell lines. Culture: adherent culturing in D-MEM (Hyclone, Inc.) containing 10% fetal calf serum. The initial cell concentration was about 3×10^5 /mL. The cell was passaged by 1:3 dilution in every 2-3 days. On the day before the test, the cell was passaged by 1:2 dilution, the cell concentration for the test was 5-10×10^5 /mL. • 2) Dissolution and dilution of compounds: according to the weight and molecular weight of the drugs provided, 100-200 μL of DMSO was added. Then normal saline was added to make the final diluted concentration of the drugs be 5 mM (Note that the final concentration of DMSO should not be more than 10%). • 3) D-MEM or RPMI 1640 cell culture medium, Gibco, Inc. • 4) Fetal calf serum Hyclone, Inc. • 5) Cell dissociation buffer, 0.25% Trypsin+0.02% EDTA. • 6) MTT solution, MTT Powder (Sigma) were dissolved in PBS buffer solution to make a solution of 5 mg/mL. The solution was filtered by a 0.22 μm micropore membrane and stored at −20° C. • 7) PBS buffer solution. • 8) 10% acidified SDS, 0.01N HCl. • 9) Centrifuge tubes, haustorial tubes etc. (BD, Inc.); 96-well plates (Costatr, Inc.) Procedures: • 1) Cell inoculation: Cells grown for 24 hours after passage, which cells were in good growth state, were used. The cells were harvested by the routine method. The cell concentration was adjust with a fresh culture solution to 2×10^5/mL (for adherent cells)-3×10^5/mL (for suspension cells). The adherent cells were inoculated at 100 μL/well and then cultivated in an incubator with 5% CO2 at 37° C. for 24 h. Thereafter the used culture solution was removed and 95 μL/well of fresh culture solution was added. The suspension cells were inoculated at 95 μL/well directly. • 2) Drugs treatment: 9 concentration grades were designed for every drug, and every concentration had 3 wells. The control group had 5 wells. The control group was tested simultaneously in each test. The final concentrations of a drug added were […], and 5 μL normal saline was added to the control group. • 3) Cell culture and detection: the cells were cultured in an incubator with 5% CO2 at 37° C. for 72 h after the drug was added, then 10 μL MTT was added to each well and the culture was continued for 4 h. 100 μL of 10% SDS (containing 0.01N HCl) was added to each well. After 24 h, the absorbance (A) of each well was determined by Bio-rad 680 ELISA with the detection wavelength of 570 nm and the reference wavelength of 630 nm. Calculation:
(§3) First, the absorbance (A) of each well was averaged (removing any data with big difference). […] A0 was the mean absorbance of the control wells. The effect curve of the drug concentration was drawn using EXCEL software and the drug concentration for 50% cell survival was calculated according to an appropriate computing methods.

[2] = tested on: A549: a human lung cancer cell line; experiment: MTT analytical method, A549 cells; assay type: cell-based; conditions: 72 h
From the text: as §1, §2, §3

[3] = tested on: Bel7402: a human liver cancer cell line; experiment: MTT analytical method, Bel7402 cells; assay type: cell-based; conditions: Bel-7402, 72 h
From the text: as §1, §2, §3

[4] = tested on: SGC7901: a human gastric cancer line; experiment: MTT analytical method, SGC7901 cells; assay type: cell-based; conditions: SGC-7901, 72 h
From the text: as §1, §2, §3

[5] = tested on: HepG2: a human liver cancer cell line; experiment: MTT analytical method, HepG2 cells; assay type: cell-based; conditions: 72 h
From the text: as §1, §2, §3

[6] = tested on: NCI-H460: a human lung cancer cell line; experiment: MTT analytical method, NCI-H460 cells; assay type: cell-based; conditions: 72 h
From the text: as §1, §2, §3

[7] = tested on: LOVO: a human colon cancer cell line; experiment: MTT analytical method, LOVO cells; assay type: cell-based; conditions: 72 h
From the text: as §1, §2, §3

[8] = tested on: MDA-MB-231: a human breast cancer line; experiment: MTT analytical method, MDA-MB-231 cells; assay type: cell-based; conditions: MDA-MB-231, MTT, 72 h
From the text: as §1, §2, §3

Hepatocellular Carcinoma = conditions: patients, liver cancer treatment; cited from earlier work

SMILES | IC50 [1] [µM] | IC50 [2] [µM] | IC50 [3] [µM] | IC50 [4] [µM] | IC50 [5] [µM] | IC50 [6] [µM] | IC50 [7] [µM] | IC50 [8] [µM] | fatal rate of complication (Hepatocellular Carcinoma) [%]
CCCCCCCCCCCCOC(=O)c1cc(C(=O)Nc2ccn([C@@H]3O[C@H](CO)[C@@H](O)C3(F)F)c(=O)n2)ccn1 [Compound 27, Dodecyl-4-((1-((2R,4R,5R)-3,3-difluoro-4-hydroxy-5-(hydroxymethyl)-tetrahydrofuran-2-yl)-2-oxo-1,2-dihydropyrimidin-4-yl)carbamoyl)picolinate] | < 2 | 4 | 4 | > 16 | 1 | < 1 | 2 | < 1 | –
CCCCCCCCCCCOC(=O)c1nccnc1C(=O)Nc1ccn([C@@H]2O[C@H](CO)[C@@H](O)C2(F)F)c(=O)n1 [Compound 5, Undecyl-3-((1-((2R,4R,5R)-3,3-difluoro-4-hydroxy-5-(hydroxymethyl)-tetrahydrofuran-2-yl)-2-oxo-1,2-dihydropyrimidin-4-yl)carbamoyl)pyrazine-2-carboxylate] | 30 | – | 16 | > 16 | 4 | < 2 | 1 | > 16 | –
CCCCCCCCCCCOC(=O)c1ncccc1C(=O)Nc1ccn([C@@H]2O[C@H](CO)[C@@H](O)C2(F)F)c(=O)n1 [Compound 15, Undecyl-3-((1-((2R,4R,5R)-3,3-difluoro-4-hydroxy-5-(hydroxymethyl)-tetrahydrofuran-2-yl)-2-oxo-1,2-dihydropyrimidin-4-yl)carbamoyl)picolinate] | < 2 | 3 | 4 | > 16 | 4 | < 1 | 16 | 11 | –
CCCCCCCCCCCCOC(=O)c1cc(C(=O)Nc2ccn([C@@H]3O[C@H](CO)[C@@H](O)C3(F)F)c(=O)n2)[nH]n1 [Compound 31, Dodecyl-5-((1-((2R,4R,5R)-3,3-difluoro-4-hydroxy-5-(hydroxymethyl)-tetrahydrofuran-2-yl)-2-oxo-1,2-dihydropyrimidin-4-yl)carbamoyl)-1H-pyrazole-3-carboxylate] | 7 | 21 | 30 | – | – | – | – | – | –
CCCCCCCCCCCCOC(=O)c1ccnc(C(=O)Nc2ccn([C@@H]3O[C@H](CO)[C@@H](O)C3(F)F)c(=O)n2)c1 [Compound 26, Dodecyl-2-((1-((2R,4R,5R)-3,3-difluoro-4-hydroxy-5-(hydroxymethyl)-tetrahydrofuran-2-yl)-2-oxo-1,2-dihydropyrimidin-4-yl)carbamoyl)isonicotinate] | 2 | 3 | 8 | > 16 | 2 | < 1 | 16 | 6 | –
CCCCCCCCCCCOC(=O)c1cccnc1C(=O)Nc1ccn([C@@H]2O[C@H](CO)[C@@H](O)C2(F)F)c(=O)n1 [Compound 14, Undecyl-2-((1-((2R,4R,5R)-3,3-difluoro-4-hydroxy-5-(hydroxymethyl)-tetrahydrofuran-2-yl)-2-oxo-1,2-dihydropyrimidin-4-yl)carbamoyl)nicotinate] | 35 | 140 | > 200 | – | – | – | – | – | –
CCCCCCCCCCCCOC(=O)c1ccc(C(=O)Nc2ccn([C@@H]3O[C@H](CO)[C@@H](O)C3(F)F)c(=O)n2)cn1 [Compound 9, Dodecyl-5-((1-((2R,4R,5R)-3,3-difluoro-4-hydroxy-5-(hydroxymethyl)-tetrahydrofuran-2-yl)-2-oxo-1,2-dihydropyrimidin-4-yl)carbamoyl)picolinate] | 3 | 4 | 13 | > 16 | 6 | < 2 | 5 | > 16 | –
CCCCCCCCCCCOC(=O)c1ccc(C(=O)Nc2ccn([C@@H]3O[C@H](CO)[C@@H](O)C3(F)F)c(=O)n2)cn1 [Compound 11, Undecyl-5-((1-((2R,4R,5R)-3,3-difluoro-4-hydroxy-5-(hydroxymethyl)-tetrahydrofuran-2-yl)-2-oxo-1,2-dihydropyrimidin-4-yl)carbamoyl)picolinate] | < 2 | 3 | 4 | – | – | – | – | – | –
COc1cccc2c1C(=O)c1c(O)c3c(c(O)c1C2=O)C[C@@](O)(C(=O)CO)C[C@@H]3O[C@H]1C[C@H](N)[C@H](O)[C@H](C)O1 [Doxorubicin] | – | – | – | – | – | – | – | – | ~25
CCCCCCCCCCCCOC(=O)c1cccc(C(=O)Nc2ccn([C@@H]3O[C@H](CO)[C@@H](O)C3(F)F)c(=O)n2)n1 [Compound 18, Dodecyl-6-((1-((2R,4R,5R)-3,3-difluoro-4-hydroxy-5-(hydroxymethyl)-tetrahydrofuran-2-yl)-2-oxo-1,2-dihydropyrimidin-4-yl)carbamoyl)picolinate] | 7 | 15 | 16 | – | – | – | – | – | –
CCCCCCCCCCCCOC(=O)c1ccc(C(=O)Nc2ccn([C@@H]3O[C@H](CO)[C@@H](O)C3(F)F)c(=O)n2)nc1 [Compound 8, Dodecyl-6-((1-((2R,4R,5R)-3,3-difluoro-4-hydroxy-5-(hydroxymethyl)-tetrahydrofuran-2-yl)-2-oxo-1,2-dihydropyrimidin-4-yl)carbamoyl)nicotinate] | 6 | 4 | 23 | > 16 | 7 | < 2 | 14 | > 16 | –
CCCCCCCCCCCOC(=O)c1ccc(C(=O)Nc2ccn([C@@H]3O[C@H](CO)[C@@H](O)C3(F)F)c(=O)n2)nc1 [Compound 10, Undecyl-6-((1-((2R,4R,5R)-3,3-difluoro-4-hydroxy-5-(hydroxymethyl)-tetrahydrofuran-2-yl)-2-oxo-1,2-dihydropyrimidin-4-yl)carbamoyl)nicotinate] | 4 | 13 | 30 | – | – | – | – | – | –
CCCCCCCCCCCCOC(=O)c1ccncc1C(=O)Nc1ccn([C@@H]2O[C@H](CO)[C@@H](O)C2(F)F)c(=O)n1 [Compound 24, Dodecyl-3-((1-((2R,4R,5R)-3,3-difluoro-4-hydroxy-5-(hydroxymethyl)-tetrahydrofuran-2-yl)-2-oxo-1,2-dihydropyrimidin-4-yl)carbamoyl)isonicotinate] | 8 | 8 | 16 | – | – | – | – | – | –
